Reference: ChEMBL document CHEMBL3988442, “University of Dundee, Small-Polar-MMV Screening Library” (2021)
“And” between values parts separate entries of the source, which are not always exact repeats. Equal values may be shown once.

Key:
[1] = target: T1, Tyrosyl-tRNA synthetase, putative (Trypanosoma cruzi (strain CL Brener), UniProt Q4DSP6); test: Trypanosoma cruzi tyrosyl tRNA synthetase (TcYRS) SOP; assay type: functional
T1 sequence (Q4DSP6 whole entry): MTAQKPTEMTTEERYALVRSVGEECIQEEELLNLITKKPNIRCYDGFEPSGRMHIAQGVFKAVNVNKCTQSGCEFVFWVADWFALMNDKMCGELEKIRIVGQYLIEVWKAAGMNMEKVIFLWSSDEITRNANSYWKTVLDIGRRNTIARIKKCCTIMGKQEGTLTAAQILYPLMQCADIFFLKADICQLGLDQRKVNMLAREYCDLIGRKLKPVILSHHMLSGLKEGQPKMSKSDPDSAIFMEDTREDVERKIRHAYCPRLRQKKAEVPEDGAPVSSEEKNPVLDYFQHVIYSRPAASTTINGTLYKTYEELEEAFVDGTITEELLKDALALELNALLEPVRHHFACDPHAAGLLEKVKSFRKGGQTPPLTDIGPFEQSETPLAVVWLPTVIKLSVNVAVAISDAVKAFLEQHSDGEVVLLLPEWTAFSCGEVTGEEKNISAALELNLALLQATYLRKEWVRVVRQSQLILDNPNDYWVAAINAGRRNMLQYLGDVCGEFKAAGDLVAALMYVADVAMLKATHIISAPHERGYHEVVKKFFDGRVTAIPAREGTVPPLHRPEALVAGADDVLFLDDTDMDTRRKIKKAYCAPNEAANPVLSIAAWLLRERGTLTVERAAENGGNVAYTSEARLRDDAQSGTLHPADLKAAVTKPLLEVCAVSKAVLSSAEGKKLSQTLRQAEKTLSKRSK

[2] = target: T1, Tyrosyl-tRNA synthetase, putative; test: Trypanosoma cruzi tyrosyl tRNA synthetase (TcYRS) _High Tyrosine SOP; assay type: functional
Histidine--tRNA ligase = target: T2, Histidine--tRNA ligase (Leishmania infantum, UniProt A4I591); test: Leishmania infantum Histidine tRNA synthetase (LdHisRS); assay type: functional
T2 sequence (A4I591 whole entry): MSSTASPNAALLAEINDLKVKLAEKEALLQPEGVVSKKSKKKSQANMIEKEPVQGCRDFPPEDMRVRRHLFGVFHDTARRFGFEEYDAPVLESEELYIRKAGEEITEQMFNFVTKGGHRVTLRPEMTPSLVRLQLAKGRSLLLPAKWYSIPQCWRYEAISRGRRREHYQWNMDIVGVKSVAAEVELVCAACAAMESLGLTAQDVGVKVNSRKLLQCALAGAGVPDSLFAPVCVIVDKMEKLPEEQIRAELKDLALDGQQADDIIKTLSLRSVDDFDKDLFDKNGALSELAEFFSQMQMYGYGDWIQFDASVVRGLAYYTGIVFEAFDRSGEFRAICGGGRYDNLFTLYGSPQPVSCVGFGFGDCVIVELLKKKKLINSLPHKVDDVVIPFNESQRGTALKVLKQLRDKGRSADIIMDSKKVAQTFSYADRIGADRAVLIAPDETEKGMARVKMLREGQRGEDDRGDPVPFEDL

[3] = target: Polyketide synthase Pks13 (Mycobacterium tuberculosis (strain ATCC 25618 / H37Rv), UniProt I6X8D2); test: Mycobacterium tuberculosis Polyketide synthase 13 Thioesterase (PKS13); assay type: functional
Chain of Polyketide synthase Pks13 (I6X8D2 whole entry, the tested form may be a part): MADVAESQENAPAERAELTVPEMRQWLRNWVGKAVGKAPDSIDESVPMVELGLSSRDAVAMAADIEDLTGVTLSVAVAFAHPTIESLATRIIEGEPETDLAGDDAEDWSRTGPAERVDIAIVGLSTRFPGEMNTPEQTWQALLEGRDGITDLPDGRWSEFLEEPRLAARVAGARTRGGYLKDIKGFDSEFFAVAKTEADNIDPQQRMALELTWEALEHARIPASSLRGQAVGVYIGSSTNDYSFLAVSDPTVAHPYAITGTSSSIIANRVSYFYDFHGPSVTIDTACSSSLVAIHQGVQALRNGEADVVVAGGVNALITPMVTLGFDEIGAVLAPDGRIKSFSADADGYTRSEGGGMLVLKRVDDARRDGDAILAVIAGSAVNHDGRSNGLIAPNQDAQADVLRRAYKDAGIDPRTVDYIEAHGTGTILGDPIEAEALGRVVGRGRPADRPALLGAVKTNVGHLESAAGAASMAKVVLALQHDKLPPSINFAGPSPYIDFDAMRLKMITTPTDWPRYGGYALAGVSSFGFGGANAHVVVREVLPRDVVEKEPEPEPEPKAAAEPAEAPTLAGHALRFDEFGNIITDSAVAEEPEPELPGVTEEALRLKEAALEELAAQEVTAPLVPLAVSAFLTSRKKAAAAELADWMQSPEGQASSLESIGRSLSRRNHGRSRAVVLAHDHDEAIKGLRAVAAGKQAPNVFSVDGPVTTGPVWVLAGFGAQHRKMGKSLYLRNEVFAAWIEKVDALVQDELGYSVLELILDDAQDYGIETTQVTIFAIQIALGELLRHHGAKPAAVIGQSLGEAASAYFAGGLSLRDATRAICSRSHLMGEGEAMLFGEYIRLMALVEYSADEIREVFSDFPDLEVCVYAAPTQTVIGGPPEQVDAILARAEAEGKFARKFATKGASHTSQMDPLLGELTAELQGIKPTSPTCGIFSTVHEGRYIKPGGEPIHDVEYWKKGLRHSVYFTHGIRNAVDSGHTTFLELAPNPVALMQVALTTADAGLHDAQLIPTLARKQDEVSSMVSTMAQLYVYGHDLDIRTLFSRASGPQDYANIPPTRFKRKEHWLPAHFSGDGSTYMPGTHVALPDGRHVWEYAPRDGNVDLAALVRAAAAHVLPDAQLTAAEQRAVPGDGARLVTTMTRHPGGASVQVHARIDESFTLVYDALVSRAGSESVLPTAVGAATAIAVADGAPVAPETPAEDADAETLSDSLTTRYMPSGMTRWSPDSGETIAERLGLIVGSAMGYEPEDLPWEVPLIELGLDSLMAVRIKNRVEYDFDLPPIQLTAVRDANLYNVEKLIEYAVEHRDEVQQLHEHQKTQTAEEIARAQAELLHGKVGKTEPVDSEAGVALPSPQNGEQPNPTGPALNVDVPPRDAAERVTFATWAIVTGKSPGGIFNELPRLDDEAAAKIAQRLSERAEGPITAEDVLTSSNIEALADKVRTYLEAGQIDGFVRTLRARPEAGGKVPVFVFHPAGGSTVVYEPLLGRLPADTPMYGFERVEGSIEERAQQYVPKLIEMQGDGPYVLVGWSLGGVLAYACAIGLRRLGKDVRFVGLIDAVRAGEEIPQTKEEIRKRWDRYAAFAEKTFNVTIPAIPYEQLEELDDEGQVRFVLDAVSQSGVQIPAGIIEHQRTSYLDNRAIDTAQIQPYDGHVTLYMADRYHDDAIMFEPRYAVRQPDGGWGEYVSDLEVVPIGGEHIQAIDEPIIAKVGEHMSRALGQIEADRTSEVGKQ

[4] = target: Chromo domain-containing protein 1 (Saccharomyces cerevisiae (strain ATCC 204508 / S288c) (Baker's yeast), UniProt P32657); test: ScCHD-1 Enzyme Inhibition Assay; assay type: functional
Chain of Chromo domain-containing protein 1 (P32657 whole entry, the tested form may be a part): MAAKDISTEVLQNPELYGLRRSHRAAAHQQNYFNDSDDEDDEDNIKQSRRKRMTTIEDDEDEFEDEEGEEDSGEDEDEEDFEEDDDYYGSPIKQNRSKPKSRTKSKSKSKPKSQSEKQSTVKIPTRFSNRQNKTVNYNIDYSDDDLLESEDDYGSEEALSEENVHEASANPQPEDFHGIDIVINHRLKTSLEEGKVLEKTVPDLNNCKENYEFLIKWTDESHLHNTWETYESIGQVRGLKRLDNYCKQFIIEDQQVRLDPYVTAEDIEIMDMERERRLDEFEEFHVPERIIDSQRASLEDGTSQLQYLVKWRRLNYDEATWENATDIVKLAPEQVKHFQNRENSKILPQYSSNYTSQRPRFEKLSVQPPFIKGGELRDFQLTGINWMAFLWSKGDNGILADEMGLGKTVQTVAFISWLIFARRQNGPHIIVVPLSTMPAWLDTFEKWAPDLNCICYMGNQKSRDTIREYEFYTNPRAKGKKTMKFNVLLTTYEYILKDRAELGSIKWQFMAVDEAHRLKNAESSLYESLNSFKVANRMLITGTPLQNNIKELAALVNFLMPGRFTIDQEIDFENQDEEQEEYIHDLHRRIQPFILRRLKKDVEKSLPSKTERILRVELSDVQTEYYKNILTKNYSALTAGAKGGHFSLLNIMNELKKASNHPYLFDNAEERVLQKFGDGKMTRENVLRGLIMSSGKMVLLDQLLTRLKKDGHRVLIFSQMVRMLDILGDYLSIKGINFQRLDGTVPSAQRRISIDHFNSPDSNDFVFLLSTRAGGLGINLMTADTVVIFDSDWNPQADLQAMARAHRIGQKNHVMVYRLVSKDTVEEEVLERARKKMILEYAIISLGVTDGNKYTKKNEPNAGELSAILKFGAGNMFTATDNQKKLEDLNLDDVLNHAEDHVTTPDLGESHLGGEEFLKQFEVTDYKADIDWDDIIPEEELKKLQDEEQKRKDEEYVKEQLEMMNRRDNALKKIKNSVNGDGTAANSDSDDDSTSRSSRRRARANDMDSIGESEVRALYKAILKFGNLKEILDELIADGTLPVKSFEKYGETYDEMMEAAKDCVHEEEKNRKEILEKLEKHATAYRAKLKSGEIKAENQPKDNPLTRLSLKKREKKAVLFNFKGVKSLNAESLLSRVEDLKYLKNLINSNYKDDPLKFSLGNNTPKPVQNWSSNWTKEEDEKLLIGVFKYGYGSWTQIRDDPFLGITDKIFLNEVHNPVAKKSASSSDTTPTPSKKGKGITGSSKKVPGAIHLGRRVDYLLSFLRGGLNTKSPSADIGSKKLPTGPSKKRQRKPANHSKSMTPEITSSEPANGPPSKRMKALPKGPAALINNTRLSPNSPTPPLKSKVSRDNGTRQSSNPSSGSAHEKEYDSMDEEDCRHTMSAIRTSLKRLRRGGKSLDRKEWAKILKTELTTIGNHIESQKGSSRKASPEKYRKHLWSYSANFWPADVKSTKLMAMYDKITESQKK

Shiga toxin 2 = target: T3, Shiga toxin 2 (Escherichia coli O157:H7, UniProt P09385+P09386); test: E. coli 0.157:H7 Shiga Toxin SOP - stx2 screening assay; assay type: functional
T3 sequence (P09385 whole entry): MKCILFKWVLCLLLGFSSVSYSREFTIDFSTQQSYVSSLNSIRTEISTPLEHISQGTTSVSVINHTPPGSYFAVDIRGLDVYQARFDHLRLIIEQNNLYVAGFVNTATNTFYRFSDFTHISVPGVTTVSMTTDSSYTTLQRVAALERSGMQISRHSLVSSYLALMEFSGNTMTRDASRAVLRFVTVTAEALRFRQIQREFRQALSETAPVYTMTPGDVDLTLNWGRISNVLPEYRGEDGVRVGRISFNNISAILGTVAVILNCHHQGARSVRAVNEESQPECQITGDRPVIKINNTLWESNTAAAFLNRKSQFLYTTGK
T3 sequence (P09386 whole entry): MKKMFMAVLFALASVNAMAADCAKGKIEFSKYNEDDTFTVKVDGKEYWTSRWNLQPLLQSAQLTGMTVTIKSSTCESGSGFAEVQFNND

Lysine--tRNA ligase = Lysine--tRNA ligase (Plasmodium falciparum (isolate 3D7), UniProt Q8IDJ8); test: Pf-KRS-1 (Lysyl-RNA Synthetase-1, KRS-1, cytosolic KRS) from Plasmodium falciparum. Inhibitor assay, 384 well plate, luminescence read.; assay type: functional
Chain of Lysine--tRNA ligase (Q8IDJ8 whole entry): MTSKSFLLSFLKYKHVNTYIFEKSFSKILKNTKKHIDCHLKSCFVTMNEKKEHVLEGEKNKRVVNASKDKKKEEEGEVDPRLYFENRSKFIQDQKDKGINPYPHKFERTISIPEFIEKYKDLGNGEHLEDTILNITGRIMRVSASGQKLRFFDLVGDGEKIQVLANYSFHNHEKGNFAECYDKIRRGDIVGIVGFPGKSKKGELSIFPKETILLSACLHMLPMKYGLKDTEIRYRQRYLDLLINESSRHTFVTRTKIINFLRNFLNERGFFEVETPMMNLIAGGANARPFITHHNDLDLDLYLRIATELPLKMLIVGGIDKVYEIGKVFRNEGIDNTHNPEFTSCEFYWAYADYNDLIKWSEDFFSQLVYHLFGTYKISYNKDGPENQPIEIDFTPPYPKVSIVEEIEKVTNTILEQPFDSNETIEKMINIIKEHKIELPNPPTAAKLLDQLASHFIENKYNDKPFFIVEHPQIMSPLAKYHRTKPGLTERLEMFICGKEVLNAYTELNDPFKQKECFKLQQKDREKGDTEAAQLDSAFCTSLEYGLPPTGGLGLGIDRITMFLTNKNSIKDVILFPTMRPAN

[5] = microbe, parasite or virus in culture; conditions: Mycobacterium tuberculosis, 96 h, read-out: pIC50 (converted)
[6] = microbe, parasite or virus in culture; conditions: Mycobacterium tuberculosis, 72 h, read-out: pIC50 (converted)
[7] = target: T4, Aspartate--tRNA(Asp/Asn) ligase (Mycobacterium tuberculosis (strain ATCC 25618 / H37Rv), UniProt P9WFW3); test: Assay for Asp RNA synthetase-1 from Mycobacterium tuberculosis; assay type: functional
T4 sequence (P9WFW3 whole entry): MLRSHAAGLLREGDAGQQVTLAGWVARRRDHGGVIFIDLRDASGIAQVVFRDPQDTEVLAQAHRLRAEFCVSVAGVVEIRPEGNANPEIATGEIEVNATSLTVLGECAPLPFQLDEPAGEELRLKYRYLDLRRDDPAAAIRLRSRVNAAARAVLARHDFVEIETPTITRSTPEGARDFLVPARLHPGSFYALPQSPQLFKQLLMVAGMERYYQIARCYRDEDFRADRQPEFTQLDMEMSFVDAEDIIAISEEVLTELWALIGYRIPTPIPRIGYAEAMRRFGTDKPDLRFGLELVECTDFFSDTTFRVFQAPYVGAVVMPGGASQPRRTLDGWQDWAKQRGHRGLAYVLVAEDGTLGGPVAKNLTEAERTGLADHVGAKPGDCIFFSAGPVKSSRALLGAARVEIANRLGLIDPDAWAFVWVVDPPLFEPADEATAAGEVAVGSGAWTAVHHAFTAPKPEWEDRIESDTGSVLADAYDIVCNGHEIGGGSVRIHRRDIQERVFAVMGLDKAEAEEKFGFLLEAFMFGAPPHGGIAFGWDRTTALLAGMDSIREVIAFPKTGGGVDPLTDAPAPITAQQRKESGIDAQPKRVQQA

[8] = To identify inhibition of the IFN signalling (Jak-Stat) pathway via expression of an eGFP reporter gene under the control of an IFN-stimulated response element (ISRE) containing MxA promoter.; assay type: functional, Homo sapiens
[9] = In vitro enzyme assay to detect hydrolysis of chlorophenol red-beta-D-[…] directly proportional to the number of Toxoplasma stably expressing beta-galactosidase; assay type: functional, organism-based, Toxoplasma gondii; conditions: Toxoplasma gondii

| Compound | IC50 [1] | IC50 [2] | IC50 (Shiga toxin 2) | also measured |
| --- | --- | --- | --- | --- |
| CN(CCCOc1ccccc1)C(=O)CN1CCc2cncnc2C1 | > 100 µM | > 100 µM | – | IC50 (Histidine--tRNA ligase): 44 µM and 39.2 µM |
| CC(=O)N1CCN(c2ccc3ccc(C(=O)NC4CCCC4)cn23)CC1 | > 100 µM | 41.1 µM and > 100 µM | – | – |
| COCCN1C[C@@H]2CN(c3ncccn3)C[C@@H]2C1=O | > 100 µM | > 100 µM | – | IC50 [3]: > 100 µM; IC50 [4]: > 29.5 µM |
| CC(C)NC(=O)N1CCN(CC2CC2)CC2(CC(=O)N(C)C2)C1 (stereo not given) | > 100 µM | > 100 µM | – | – |
| Cc1cc(-c2nn(C)c(Cl)c2CN2Cc3ccccc3C(O)C2)no1 (stereo not given) | – | – | 41.5 µM and > 100 µM | IC50 (Histidine--tRNA ligase): 16.7 µM and 20.3 µM; IC50 (Lysine--tRNA ligase): > 50.1 µM |
| O=C(NCc1ccccc1)N1CCC2(CC(=O)N(c3ccsc3)C2)C1 (stereo not given) | > 100 µM | > 100 µM | – | – |
| O=S(=O)(CCN1CCOC(Cn2cccn2)C1)C(F)(F)F (stereo not given) | – | – | 15 µM and 14 µM | IC50 [5]: > 50.1 µM; IC50 [4]: > 29.5 µM; IC50 [6]: 28.9 µM |
| CNC(=O)[C@H]1CCS(=O)(=O)[C@@H]2CN(Cc3ccc(OC)cc3)C[C@H]12 | > 100 µM | > 100 µM | – | – |
| Cn1nc2c(cc1=O)CN(Cc1nc(C(C)(C)C)no1)CC2 | – | – | – | IC50 [7]: > 100 µM; IC50 (Histidine--tRNA ligase): 25.4 µM and 17.9 µM; IC50 (Lysine--tRNA ligase): > 50.1 µM |
| N#Cc1ccc(NCCNc2ccc(C(F)(F)F)cn2)nc1 | – | – | > 100 µM | pIC50 [8]: 5.715; IC50 [9]: 22.7 µM |
| Cc1noc(NC(=O)c2ccc(Br)s2)n1 | – | – | > 100 µM | IC50 [5]: 42.5 µM; IC50 [6]: 32.8 µM |
| CN(C)S(=O)(=O)N1CCCC(c2cccc(Cc3ccccc3)n2)C1 (stereo not given) | – | – | > 100 µM | pIC50 [8]: 4.718 and 4.613 |
| CNC(=O)C1(c2cnccn2)CCCN1C(=O)c1ccn(C)n1 (stereo not given) | > 100 µM | > 100 µM | – | – |
| Cc1cc(C)n(C2CN(CC(=O)N(C)Cc3ccc(C)o3)C2)n1 | 75.8 µM and 72.1 µM | 79.3 µM and 74.7 µM | – | – |
| Fc1ccc(OCc2noc(CN3CCc4cncnc4C3)n2)cc1 | > 100 µM | > 100 µM | – | IC50 (Histidine--tRNA ligase): 49.6 µM and 74.9 µM |
